The values below come from ChEMBL document CHEMBL4619703, “Synthesis, G-Quadruplex DNA binding and cytotoxic properties of naphthalimide substituted styryl dyes” (Bioorg Med Chem, 2020).

The source made the active and inactive calls. The rule behind the calls is not given here.

The test system of series [1] is Quadruplex DNA. As to the kind of experiment: Binding affinity to human c-Myc G-quadruplex DNA at 2 uM incubated for 2 mins by UV- vis spectrophotometric analysis. Type of series: nucleic-acid assay.
Series [2] has as its system Quadruplex DNA. Kind of series: Binding affinity to human 22AG G-quadruplex DNA by spectrofluorophotometric method. Type of series: nucleic-acid assay.
Series [3] has as its target Quadruplex DNA. As to the kind of experiment: Displacement of TO from human G3T3 G-quadruplex DNA at pH 7.4 by spectrofluorophotometric FID assay. Type of series: nucleic-acid assay.
The subject of series [4] is Quadruplex DNA. As to the kind of experiment: Binding affinity to human CM22 G-quadruplex DNA at 2 uM incubated for 2 mins by UV- vis spectrophotometric analysis. Type of series: nucleic-acid assay.
The subject of series [5] is Quadruplex DNA. Kind of series: Binding affinity to human Pu27 G-quadruplex DNA at 2 uM incubated for 2 mins by UV- vis spectrophotometric analysis. The series is classed as nucleic-acid assay.
In series [6] the test system is Quadruplex DNA. Kind of series: Binding affinity to human Hum24 G-quadruplex DNA at 2 uM incubated for 2 mins by UV- vis spectrophotometric analysis. Type of series: nucleic-acid assay.
In series [7] the test system is Quadruplex DNA. Kind of series: Binding affinity of human G3T3 G-quadruplex DNA at 2 uM incubated for 2 mins by UV- vis spectrophotometric analysis. The series is classed as nucleic-acid assay.
For series [8], the system named is Quadruplex DNA. Kind of series: Binding affinity to human Htg-21 G-quadruplex DNA at 2 uM incubated for 2 mins by UV- vis spectrophotometric analysis. Type of series: nucleic-acid assay.
Series [9] deals with Quadruplex DNA. As to the kind of experiment: Binding affinity to human 22AG G-quadruplex DNA at 2 uM incubated for 2 mins by UV- vis spectrophotometric analysis. The series is classed as nucleic-acid assay.
The subject of series [10] is Quadruplex DNA. Kind of series: Binding affinity to human EAD G-quadruplex DNA at 2 uM incubated for 2 mins by UV- vis spectrophotometric analysis. The series is classed as nucleic-acid assay.
In series [11] the test system is Quadruplex DNA. As to the kind of experiment: Binding affinity to human G-Quadruplex DNA assessed as aggregation at 10 uM by TEM analysis. Type of series: nucleic-acid assay.
Series [12] relates to Quadruplex DNA. As to the kind of experiment: Binding affinity to human CM22 G-quadruplex DNA by spectrofluorophotometric method. The series is classed as nucleic-acid assay.
The target in series [13] is Quadruplex DNA. Kind of series: Displacement of TO from human 22AG G-quadruplex DNA at pH 7.4 by spectrofluorophotometric based FID assay. Type of series: nucleic-acid assay.
Series [14] addresses Quadruplex DNA. As to the kind of experiment: Displacement of TO from human CM22 G-quadruplex DNA at pH 7.4 by spectrofluorophotometric FID assay. Type of series: nucleic-acid assay.
The target of series [15] is Quadruplex DNA. As to the kind of experiment: Displacement of TO from human c-Myc G-quadruplex DNA at pH 7.4 by spectrofluorophotometric FID assay. Type of series: nucleic-acid assay.
Series [16] has as its target Quadruplex DNA. As to the kind of experiment: Displacement of TO from human Htg 21 G-quadruplex DNA at pH 7.4 by spectrofluorophotometric FID assay. The series is classed as nucleic-acid assay.
Series [17] addresses Quadruplex DNA. As to the kind of experiment: Displacement of TO from human Hum 24 G-quadruplex DNA at pH 7.4 by spectrofluorophotometric FID assay. Type of series: nucleic-acid assay.
Series [18] addresses Quadruplex DNA. Kind of series: Displacement of TO from human Pu 27 G-quadruplex DNA at pH 7.4 by spectrofluorophotometric FID assay. The series is classed as nucleic-acid assay.
Series [19] deals with Quadruplex DNA. Kind of series: Displacement of TO from human EAD G-quadruplex DNA at pH 7.4 by spectrofluorophotometric FID assay. Type of series: nucleic-acid assay.
In series [20] the target is DNA. As to the kind of experiment: Displacement of TO from ds26 DNA (unknown origin) at pH 7.4 by spectrofluorophotometric FID assay. Type of series: nucleic-acid assay.
For series [21], the system named is Calf thymus DNA. As to the kind of experiment: Displacement of TO from calf thymus DNA at pH 7.4 by spectrofluorophotometric FID assay. The series is classed as nucleic-acid assay, Bos taurus.
In series [22] the target is Poly(dG-dC)oligonucleotide. Kind of series: Displacement of TO from Polyd(G-C)7 DNA at pH 7.4 by spectrofluorophotometric FID assay. The series is classed as nucleic-acid assay.
In series [23] the test system is Quadruplex DNA. As to the kind of experiment: Binding affinity to human c-Myc G-quadruplex DNA assessed as inhibition of G4/hemin peroxidase at 1 to 5 uM preincubated for 1 hr followed by hemin addition and further incubated for 1 hr and H2O2 addition and measured after 30 mins by UV spectrophotometric method. Type of series: nucleic-acid assay.
The test system of series [24] is Quadruplex DNA. Kind of series: Binding affinity to human Hum24 G-quadruplex DNA assessed as inhibition of G4/hemin peroxidase at 1 to 5 uM preincubated for 1 hr followed by hemin addition and further incubated for 1 hr and H2O2 addition and measured after 30 mins by UV spectrophotometric method. Type of series: nucleic-acid assay.
A further series has as its system HeLa. Kind of series: Antiproliferative activity against human HeLa cells assessed as reduction in cell viability after 72 hrs by CCK8 assay. The series is classed as functional. For orientation: Tetrazolium assays rely on reduction of a dye to a coloured formazan, in cell work by metabolically active cells.
A further series concerns HCT-116. Kind of series: Antiproliferative activity against human HCT116 cells assessed as reduction in cell viability after 72 hrs by CCK8 assay. The series is classed as functional.
The subject of the next series is MDA-MB-231. As to the kind of experiment: Antiproliferative activity against human MDA-MB-231 cells assessed as reduction in cell viability after 72 hrs by CCK8 assay. The series is classed as functional.
Series [25] has as its system Quadruplex DNA. Kind of series: Binding affinity to human 22AG G-quadruplex DNA assessed as inhibition of G4/hemin peroxidase at 1 to 5 uM preincubated for 1 hr followed by hemin addition and further incubated for 1 hr and H2O2 addition and measured after 30 mins by UV spectrophotometric method. Type of series: nucleic-acid assay.
The test system of a further series is HEK-293T. Kind of series: Cytotoxicity against human 293T cells assessed as reduction in cell viability after 72 hrs by CCK8 assay. The series is classed as cell-based.
Series [26] deals with Quadruplex DNA. As to the kind of experiment: Binding affinity to G-Quadruplex DNA in human HeLa cells assessed as red fluorescence emission in nucleus at 20 uM after 30 min by DAPI staining based confocal microscopic method. Type of series: cell-based.
For series [27], the system named is Quadruplex DNA. Kind of series: Binding affinity to human c-Myc G-quadruplex DNA assessed as fluorescence intensity at 2 uM by fluorescence spectra analysis. Type of series: nucleic-acid assay.
Series [28] concerns Quadruplex DNA. As to the kind of experiment: Binding affinity to human Htg-21 G-quadruplex DNA assessed as fluorescence intensity at 2 uM by fluorescence spectra analysis. The series is classed as nucleic-acid assay.
Series [29] relates to Quadruplex DNA. As to the kind of experiment: Binding affinity to human CM22 G-quadruplex DNA assessed as fluorescence intensity at 2 uM by fluorescence spectra analysis. Type of series: nucleic-acid assay.
Series [30] concerns Quadruplex DNA. Kind of series: Binding affinity to human 22AG G-quadruplex DNA assessed as fluorescence intensity at 2 uM by fluorescence spectra analysis. Type of series: nucleic-acid assay.
In series [31] the test system is Quadruplex DNA. Kind of series: Binding affinity to human Hum24 G-quadruplex DNA assessed as fluorescence intensity at 2 uM by fluorescence spectra analysis. The series is classed as nucleic-acid assay.
The test system of series [32] is Quadruplex DNA. As to the kind of experiment: Binding affinity to human G3T3 G-quadruplex DNA assessed as fluorescence intensity at 2 uM by fluorescence spectra analysis. The series is classed as nucleic-acid assay.
For series [33], the system named is Quadruplex DNA. Kind of series: Binding affinity to human EAD G-quadruplex DNA assessed as fluorescence intensity at 2 uM by fluorescence spectra analysis. Type of series: nucleic-acid assay.
The subject of series [34] is Quadruplex DNA. Kind of series: Binding affinity to human Pu27 G-quadruplex DNA assessed as fluorescence intensity at 2 uM by fluorescence spectra analysis. Type of series: nucleic-acid assay.
The next series has as its system ssDNA. Kind of series: Binding affinity to SS26 DNA (unknown origin) assessed as fluorescence intensity at 2 uM by fluorescence spectra analysis. Type of series: nucleic-acid assay.
In series [35] the test system is DNA. Kind of series: Binding affinity to ds26 DNA (unknown origin) assessed as fluorescence intensity at 2 uM by fluorescence spectra analysis. The series is classed as nucleic-acid assay.
Series [36] relates to Calf thymus DNA. As to the kind of experiment: Binding affinity to calf thymus DNA assessed as fluorescence intensity at 2 uM by fluorescence spectra analysis. The series is classed as nucleic-acid assay. The settings on record: Bos taurus.
The subject of series [37] is Poly(dG-dC)oligonucleotide. Kind of series: Binding affinity to poly (G-C)7 DNA assessed as fluorescence intensity at 2 uM by fluorescence spectra analysis. Type of series: nucleic-acid assay.

With `C[n+]1c(/C=C/c2ccc(N3CCN(CCCN4C(=O)c5cccc6cccc(c56)C4=O)CC3)cc2)ccc2c3ccccc3ccc21.[I-]`, the outcome with Quadruplex DNA [1], with Quadruplex DNA [4], with Quadruplex DNA [5], with Quadruplex DNA [6], in the series with Quadruplex DNA [7] and with Quadruplex DNA [8] was Active. In addition, the outcome with Quadruplex DNA [9], in the series on Quadruplex DNA [10], with Quadruplex DNA [11] and in the series on Quadruplex DNA [26] was Active. In addition, the Ka is 0.27 ×10⁶ /M with Quadruplex DNA [2] and 290000 M⁻¹ in the series on Quadruplex DNA [12]. Further, the DC50 on Quadruplex DNA [3] was determined as 410 nM; on Quadruplex DNA [13], 480 nM; on Quadruplex DNA [14], 390 nM; on Quadruplex DNA [15], 320 nM; on Quadruplex DNA [16], 690 nM; on Quadruplex DNA [17], 500 nM. For the same compound, the DC50 was 320 nM on Quadruplex DNA [18]; 350 nM at Quadruplex DNA [19]; 980 nM on DNA [20]; 850 nM with Calf thymus DNA [21]; over 1500 nM in series [22]. The inhibition entry with Quadruplex DNA [23], in the series with Quadruplex DNA [24] and in the series on Quadruplex DNA [25] was “Active” throughout. In addition, the Activity was found to be 0.2438 µM with HeLa, 0.4764 µM in the series on HCT-116, 0.1432 µM in the series with MDA-MB-231 and 0.5372 µM with HEK-293T. For the same compound, the fold change (FC) in the series on Quadruplex DNA [27] is 1800; in the series with Quadruplex DNA [28] it was 700 to 1800; in the series with Quadruplex DNA [29], 700 to 1800; in the series on Quadruplex DNA [30] it was 700 to 1800; in the series with Quadruplex DNA [31], 700 to 1800; in the series with Quadruplex DNA [32], 700 to 1800. Also, the fold change (FC) was 700 to 1800 in the series on Quadruplex DNA [33]; 700 to 1800 in the series on Quadruplex DNA [34]; 50 to 300 in the series on ssDNA; 50 to 300 in the series with DNA [35]; 50 to 300 with Calf thymus DNA [36]; 50 to 300 in [37].

For `O=c1[nH]cc(F)c(=O)[nH]1` [FLUOROURACIL], the Activity was 0.8046 µM in the series on HeLa, 1.123 µM with HCT-116, 0.8615 µM with MDA-MB-231 and 0.5879 µM in the series on HEK-293T.

Take `C[n+]1ccccc1/C=C/c1ccc(N2CCN(CCCN3C(=O)c4cccc5cccc(c45)C3=O)CC2)cc1.[I-]`: the result in the series with Quadruplex DNA [1], with Quadruplex DNA [4], in the series with Quadruplex DNA [5], in the series with Quadruplex DNA [6], in the series with Quadruplex DNA [7] and with Quadruplex DNA [8] was inactive. Moreover, the outcome with Quadruplex DNA [9] and with Quadruplex DNA [10] was inactive. Moreover, the Activity with HeLa was 0.1913 µM; in the series with HCT-116 it was 0.5566 µM; in the series on MDA-MB-231, 0.1014 µM; with HEK-293T it was 1.753 µM. The fold change (FC) in the series on Quadruplex DNA [27] is 16; in the series with Quadruplex DNA [28], 700 to 1800; in the series with Quadruplex DNA [29], 700 to 1800; in the series with Quadruplex DNA [30], 700 to 1800; in the series with Quadruplex DNA [31] it was 700 to 1800; in the series on Quadruplex DNA [32] it was 700 to 1800. The fold change (FC) in the series on Quadruplex DNA [33] lay in the range of 700 to 1800; with Quadruplex DNA [34] it was 700 to 1800; in the series on ssDNA, 50 to 300; with DNA [35] it was 50 to 300; with Calf thymus DNA [36], 50 to 300; in series [37], 50 to 300.
